Assay results published in US11865126B2, “Method for treating anxiety disorders, headache disorders, and eating disorders with psilocybin” (priority 2019, dated 2024).

Tested on: healthy subjects
Assay: Phase 1 healthy volunteer study, single oral dose: treatment-emergent adverse events
Type: in vivo, human
Details: 25 mg
Protocol: A Phase 1 randomized, double-blind, placebo-controlled study to evaluate the effect of psilocybin on cognitive and emotional processing as compared to placebo in healthy volunteers was conducted. The study investigated the short-term (Day 7) and long-term (Day 28) effects of moderate (10 mg) and high doses (25 mg) of psilocybin on key domains of cognition, such as episodic memory, attention, working and spatial memory, social cognition and elements of executive function, including cognitive flexibility.
90 healthy subjects were studied. Approximately 50% of the subjects were psilocybin-naïve. For subjects with prior psilocybin experience, the last exposure was at least 1 year prior to the signing of the Informed Consent Form (ICF). Approximately 50% of the subjects were female. Subjects were stratified by sex and age (18-35 years old; >35 years old).
Each subject was assigned 1 treatment bottle containing 5 capsules packaged in a double-blind fashion, depending on the randomized treatment arm, the bottle contained one of the following: • a. Psilocybin 10 mg: 2×5-mg oral psilocybin capsules plus 3× placebo capsules • b. Psilocybin 25 mg: 5×5-mg oral psilocybin capsules • c. Placebo: 5× placebo capsules
Each 5-mg oral psilocybin capsule comprised 5 mg crystalline psilocybin in the form of Polymorph A, 12.5 mg of SMCC 50, 79.5 mg of SMCC 90, 1 mg sodium starch glycolate, 1 mg colloidal silicon dioxide, and 1 mg sodium stearyl fumarate
Adverse events: Throughout the course of the study, all AEs were monitored and recorded. Each AE was classified according to the following criteria: • i. […] Moderate: The AE produces some impairment of functioning, but is not hazardous to the subject's health. • iii. Severe: The AE produces significant impairment of functioning or incapacitation and is a definite hazard to the subject's health.
Selected Adverse Events of included: • (a) Euphoric mood • (b) Dissociative disorder • (c) Hallucination • (d) Psychotic disorder • (e) Cognitive disorder • (f) Disturbance in attention • (g) Altered mood • (h) Impairment of psychomotor skills • (i) Inappropriate affect • (j) Overdose • (k) Intentional product misuse • (l) Illusion
For example, drug-induced hepatitis that resolved without evidence of hepatic failure would not be considered life threatening even though drug-induced hepatitis can be fatal. • (c) Inpatient hospitalization or prolongation of existing hospitalization. • (d) Persistent or significant disability/incapacity. • (e) Congenital anomaly/birth defect in the offspring of a subject who received psilocybin. • (f) Other: Important medical events that may not result in death, be life-threatening, or require hospitalization, may be considered an SAE when, based upon appropriate medical judgment, they may jeopardize the subject and may require medical or surgical intervention to prevent one of the outcomes listed in this definition. […] Visits:
Visit 3 (V3): Drug Administration (Day 0): The subject was asked to eat a light breakfast at least two hours prior to coming to the clinic for study drug administration. On Day 0 (V3), the subject underwent the SSTS, had vital signs obtained, medications reviewed, AEs recorded and eligibility reviewed prior to being randomized to study drug. The study drug was administered to up to six subjects simultaneously in individual beds separated by a curtain. The subject was invited to put on eyeshades and headphones, lie down and listen to calming music for the rest of the session (six hours). The subject was supported 1:1 with a chaperone and supervised by the study psychiatrist and lead therapist.
Recording of adverse events and prior/concomitant medication was performed at each visit.
During administration of psilocybin, each subject received one on one support from a trained assisting therapist and each dosing session was supervised by a study psychiatrist and a lead therapist. […]

CN(C)CCc1c[nH]c2cccc(OP(=O)(O)O)c12 [psilocybin]
16: Headache: Events
6: Emotional disorder: Events
29: Any severe TEAE: Events
13: Hallucination, visual, worst severity Moderate: Events
24: Nervous system disorders, worst severity Mild: Events
18: General disorders and administration site conditions: Events
5: Emotional disorder, worst severity Moderate: Events | Fatigue, worst severity Moderate: Events | Gastrointestinal disorders: Events | Hallucination, visual, worst severity Severe: Events | Headache, worst severity Moderate: Events
25: Mood altered: Events
26: Illusion: Events
3 (10.0): Euphoric mood, worst severity Mild: N (%) | Fatigue, worst severity Mild: N (%) | Hallucination, auditory, worst severity Moderate: N (%) | Hallucination, visual, worst severity Mild: N (%) | Hypoaesthesia, worst severity Mild: N (%) | Hypoaesthesia: N (%) | Illusion, worst severity Mild: N (%) | Mental fatigue: N (%) | Musculoskeletal and connective tissue disorders: N (%) | Nausea: N (%)
4: Euphoric mood, worst severity Moderate: Events | Gastrointestinal disorders, worst severity Mild: Events | Hallucination, auditory: Events | Hallucination, tactile: Events | Hypoaesthesia, worst severity Mild: Events | Hypoaesthesia: Events | Illusion, worst severity Mild: Events | Infections and infestations, worst severity Mild: Events | Infections and infestations: Events | Musculoskeletal and connective tissue disorders: Events
12: Illusion, worst severity Moderate: Events
7: General disorders and administration site conditions, worst severity Moderate: Events | Illusion, worst severity Severe: Events | Mood altered, worst severity Moderate: Events
6 (20.0): General disorders and administration site conditions, worst severity Moderate: N (%) | Mood altered, worst severity Moderate: N (%)
3: Euphoric mood, worst severity Mild: Events | Fatigue, worst severity Mild: Events | Hallucination, auditory, worst severity Moderate: Events | Hallucination, visual, worst severity Mild: Events | Mental fatigue: Events | Mood altered, worst severity Mild: Events | Musculoskeletal and connective tissue disorders, worst severity Mild: Events | Nausea: Events
8: Euphoric mood: Events | Fatigue: Events | General disorders and administration site conditions, worst severity Mild: Events
10: Any severe TEAE: N (%) | Headache, worst severity Mild: Events
2: Hallucination, worst severity Moderate: Events | Hallucination: Events
0: Emotional disorder, worst severity Severe: Events | Emotional disorder, worst severity Severe: N (%) | Euphoric mood, worst severity Severe: Events | Euphoric mood, worst severity Severe: N (%) | Fatigue, worst severity Severe: Events | Fatigue, worst severity Severe: N (%) | Feeling abnormal, worst severity Mild: Events | Feeling abnormal, worst severity Mild: N (%) | Feeling abnormal, worst severity Moderate: Events | Feeling abnormal, worst severity Moderate: N (%) | Feeling abnormal, worst severity Severe: Events | Feeling abnormal, worst severity Severe: N (%) | Feeling abnormal: Events | Feeling abnormal: N (%) | Gastrointestinal disorders, worst severity Severe: Events | Gastrointestinal disorders, worst severity Severe: N (%) | Hallucination, auditory, worst severity Severe: Events | Hallucination, auditory, worst severity Severe: N (%) | Hallucination, worst severity Mild: Events | Hallucination, worst severity Mild: N (%) | Hallucination, worst severity Severe: Events | Hallucination, worst severity Severe: N (%) | Headache, worst severity Severe: Events | Headache, worst severity Severe: N (%) | Hypoaesthesia, worst severity Moderate: Events | Hypoaesthesia, worst severity Moderate: N (%) | Hypoaesthesia, worst severity Severe: Events | Hypoaesthesia, worst severity Severe: N (%) | Infections and infestations, worst severity Moderate: Events | Infections and infestations, worst severity Moderate: N (%) | Infections and infestations, worst severity Severe: Events | Infections and infestations, worst severity Severe: N (%) | Investigations, worst severity Moderate: Events | Investigations, worst severity Moderate: N (%) | Investigations, worst severity Severe: Events | Investigations, worst severity Severe: N (%) | Musculoskeletal and connective tissue disorders, worst severity Severe: Events | Musculoskeletal and connective tissue disorders, worst severity Severe: N (%)
1: Emotional disorder, worst severity Mild: Events | Feeling of relaxation: Events | Gastrointestinal disorders, worst severity Moderate: Events | General disorders and administration site conditions, worst severity Severe: Events | Hallucination, auditory, worst severity Mild: Events | Investigations, worst severity Mild: Events | Investigations: Events | Musculoskeletal and connective tissue disorders, worst severity Moderate: Events
22: Hallucination, visual: Events
9: Mood altered, worst severity Severe: Events
(33.3) %: Any severe TEAE: % of subjects
